# Data as given in PubChem BioAssay (NCI).
# Several values for one entry are separate records, joined by “and”; a condition that tells them apart may be missing. Equal entries are not always repeated.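 Exposure lasted 48 hours, with cells grown in 96-well plates and compounds tested at five concentrations. Abbreviation: GI50, concentration required for 50% inhibition of growth. TGI is the concentration that stops growth completely.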
# Assays:
# Assay in all cases: DTP human tumour cell line panel, 48 h
# M19-MEL melanoma = test system: M19-MEL melanoma
# KM12 colon = test system: KM12 colon
# HOP-92 NSCLC = test system: HOP-92 NSCLC
# SNB-78 CNS = test system: SNB-78 CNS
# TK-10 renal = test system: TK-10 renal
# MOLT-4 leukemia = test system: MOLT-4 leukemia
# U251 CNS = test system: U251 CNS
# CCRF-CEM leukemia = test system: CCRF-CEM leukemia
# HT29 colon = test system: HT29 colon
# SNB-75 CNS = test system: SNB-75 CNS
Structure (SMILES),TGI (M19-MEL melanoma),TGI (KM12 colon),TGI (HOP-92 NSCLC),TGI (SNB-78 CNS),TGI (TK-10 renal),TGI (MOLT-4 leukemia),TGI (U251 CNS),TGI (CCRF-CEM leukemia),TGI (HT29 colon),TGI (SNB-75 CNS),GI50 (SNB-75 CNS),GI50 (KM12 colon),GI50 (HOP-92 NSCLC),GI50 (TK-10 renal),GI50 (MOLT-4 leukemia),GI50 (U251 CNS),GI50 (CCRF-CEM leukemia),GI50 (HT29 colon)
COC(=O)C1=NC(=S)NC(c2ccccc2)C1c1nc2ccccc2o1 (stereo not drawn),> 50 µM,> 50 µM,> 50 µM,> 50 µM,> 50 µM,> 50 µM,> 50 µM,> 50 µM,> 50 µM,,,,,,,,,
O=c1cc(-c2ccccc2)oc2ccc(Cl)cc12,> 100 µM,> 80.6 µM,73.2 µM,> 100 µM,92.7 µM,98.7 µM,> 91.7 µM,> 100 µM,> 100 µM,> 85.7 µM,,,,,,,,
CC1(C)N=C(N)N=C(N)N1c1ccc(CCCC(=O)Nc2ccc(S(=O)(=O)F)cc2)cc1,,> 100 µM,> 100 µM,,> 100 µM,> 100 µM,> 100 µM,> 100 µM,> 100 µM,> 100 µM,10.2 µM,3.54 µM,10.7 µM,7.63 µM,14.2 µM,9.22 µM,4.13 µM,2.9 µM
Nc1ncn([C@H]2CC(O)[C@@H](CO)S2)c(=O)n1 (stereo partly drawn),,> 100 µM,> 100 µM,,> 100 µM,> 100 µM,> 100 µM,> 100 µM,> 100 µM,> 100 µM,53.9 µM,3.27 µM,> 100 µM,36.3 µM,1.08 µM,12.7 µM,2.45 µM,1.25 µM
COC(=O)c1c(C(=O)OC)c(-c2ccccc2)n(-c2ccccc2)c(=O)c1-c1ccccc1,> 100 µM,> 100 µM,83 µM,> 100 µM,> 100 µM,> 100 µM,> 100 µM,> 100 µM,> 100 µM,64 µM,,,,,,,,
CC(C)(Oc1ccc(-c2cccc3ccccc23)cc1)C(=O)O,,> 100 µM,> 100 µM,,> 100 µM,> 100 µM,> 100 µM,> 100 µM,> 100 µM,> 100 µM,,,,,,,,
N[C@@H]1CCCN(c2c(Br)cnc3[nH]cc(NC(=O)C4CC4)c23)C1,,> 100 µM,> 55.8 µM,,> 68.6 µM,> 100 µM,> 100 µM,> 100 µM,> 100 µM,7.54 µM,1.53 µM,0.67 µM,1.02 µM,0.606 µM,0.279 µM,7.96 µM,0.211 µM,1.01 µM
O=c1[nH]c2cc(Cl)ccc2nc1/C(=N\Nc1ccccc1)C(O)c1ccc2c(c1)OCO2 (stereo not drawn),,> 100 µM,> 100 µM,,> 100 µM,> 100 µM,> 100 µM,> 100 µM,> 100 µM,> 100 µM,,,,,,,,
O=C(/C=C/c1ccc(O)c(O)c1)N1CCN(c2ccc(Cl)cc2)CC1,,26.6 µM,23.4 µM,,26.2 µM,> 100 µM,23.3 µM,45.1 µM,32 µM,30.2 µM,2.93 µM,7.65 µM,2.42 µM,3.59 µM,3.47 µM,5 µM,1.96 µM,13.1 µM
Cc1cc(NCCCCCCCNc2cc(C)nc3cc(N)ccc23)c2ccc(N)cc2n1,> 100 µM,45.1 µM,,> 100 µM,> 100 µM,> 100 µM,> 100 µM,64.9 µM,> 100 µM,> 100 µM,,,,,,,,
Cc1ccc(-c2nc(NCCOCCOCCN)nc(N3CCN(c4ccccn4)CC3)n2)cc1,,32.9 µM,19 µM,,34.9 µM,36 µM,33 µM,37.1 µM,29.1 µM,27.4 µM,13.9 µM,16.6 µM,4.15 µM,18.5 µM,15.8 µM,14.2 µM,14.1 µM,8.99 µM
C/C=C/C=C/c1cc2cc3c(c(O)c2c(=O)[nH]1)C1(CC3)C(O)=c2c(=O)c3c(=O)cc(OC)c(=O)c=3c(=O)c2=C1O (stereo not drawn),13 µM,16.5 µM,2.28 µM,> 56.7 µM,4.13 µM and 16.4 µM,,0.851 µM and 5.59 µM,1.13 µM and 11.2 µM,1.37 µM and 13.5 µM,0.511 µM and 1.72 µM,0.0567 µM and 0.545 µM,,0.415 µM,,,,,
CCCCNc1ncnc2c1cnn2-c1ccccc1,,27.2 µM,55.6 µM,,> 57.9 µM,> 100 µM,> 61.8 µM,> 100 µM,13.8 µM,39.9 µM,2.11 µM,0.474 µM,3.21 µM,5.35 µM,3.75 µM,2.84 µM,5.24 µM,0.565 µM
CCOc1ccc(NC(=O)CC2SC(=Nc3ccc(C)cc3)NC2=O)cc1 (stereo not drawn),> 100 µM,> 100 µM,,> 100 µM,> 100 µM,77.6 µM,> 100 µM,> 100 µM,> 100 µM,> 100 µM,,,,,,,,
CC(=O)ON(OCc1ccc2ccccc2c1)C(C)=O,,> 100 µM,> 100 µM,,> 100 µM,> 100 µM,> 100 µM,> 100 µM,> 100 µM,> 100 µM,96.6 µM,> 100 µM,34.8 µM,> 100 µM,> 100 µM,> 100 µM,> 100 µM,> 100 µM
O=S(=O)(c1ccccc1)N1CCCC(c2ccccc2)CC1 (stereo not drawn),,> 100 µM,> 100 µM,,> 100 µM,69.1 µM,> 100 µM,> 100 µM,42 µM,94.6 µM,,,,,,,,
Cc1nc2c(C)ccc([N+](=O)[O-])c2c(NCCCN(C)C)c1C,,> 100 µM,> 100 µM,,> 55.7 µM,> 100 µM,> 100 µM,> 100 µM,> 70.8 µM,> 100 µM,,,,,,,,
CNC(=O)CCN1CCN(CC/C=C2\c3ccccc3Sc3ccc(Cl)cc32)CC1,,23.5 µM,27 µM,,29.2 µM,> 34.1 µM,20.7 µM,44.8 µM,12.4 µM,23.1 µM,7.43 µM,7.53 µM,5.75 µM,14 µM,6.56 µM,7.22 µM,6.31 µM,3.11 µM
